# In publication PMC3420821 (Chemistry & biology, 2011):
# Tests used:
# CB2 receptors [1] = target: T1, CB2 receptors (Mus musculus, UniProt P47936); test: NIR-mbc94 binding competition in intact BV-2 cells; conditions: read-out: Ki (competition for NIR-mbc94 binding)
# CB2 receptors [2] = target: T1, CB2 receptors; type: binding; conditions: saturation, homogenates of CB2-mid DBT cells
# CB2 receptor mRNA = test: qPCR of CB2 receptor mRNA in primary microglia; type: cell-based, mouse; conditions: 72 hr
# CB2 receptors [3] = conditions: ref Rinaldi-Carmona et al., 1998; cited from earlier work
# T1 sequence (P47936 whole entry): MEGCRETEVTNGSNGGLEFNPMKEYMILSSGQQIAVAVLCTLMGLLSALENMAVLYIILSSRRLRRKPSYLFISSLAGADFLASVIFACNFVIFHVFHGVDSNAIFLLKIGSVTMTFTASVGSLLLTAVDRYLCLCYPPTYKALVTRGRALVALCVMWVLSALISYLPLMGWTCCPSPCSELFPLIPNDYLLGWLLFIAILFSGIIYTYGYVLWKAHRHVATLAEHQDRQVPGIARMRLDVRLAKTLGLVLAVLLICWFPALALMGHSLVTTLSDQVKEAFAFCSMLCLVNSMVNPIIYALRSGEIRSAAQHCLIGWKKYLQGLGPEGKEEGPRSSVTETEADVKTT
molecule,measurement,setting,value
Cc1c(C(=O)c2cccc3ccccc23)c2cccc3c2n1[C@H](CN1CCOCC1)CO3 [WIN55212-2],Ki,CB2 receptors [1],3 nM
"CCCCCCC(C)(C)c1ccc([C@@H]2C[C@H](O)CC[C@H]2CCCO)c(O)c1 [[^3H]-CP-55,940]",Kd,"CB2 receptors [2]; read-out: Kd of [3H]-CP-55,940",3.1 nM
same,"Bmax of [3H]-CP-55,940",CB2 receptors [2],6 pmol/mg
IL-4: cytokine that promotes alternative activation phenotype in macrophages/microglia,increase of CB2 receptor mRNA,CB2 receptor mRNA,~ 5 fold
SR144528,affinity at CB2 receptors,CB2 receptors [3],nanomolar affinity
TGFβ,effect on CB2 receptor expression (mRNA),CB2 receptor mRNA,did not affect
